Experimental data as given in article PMC8292346, “Dysfunction of the key ferroptosis-surveilling systems hypersensitizes mice to tubular necrosis during acute kidney injury” (Nature Communications, 2021).
Values joined by “and” are separate entries in the source; they are usually repeats but may differ in a detail not shown here. Equal values may be shown once. “Also recorded” adds a separate entry of the source.

Experiments:
[1] = test system: primary murine tubular cells; experiment: RSL3-induced LDH release of primary kidney tubular cells; format: cell-based; details: RSL3 14 h; for Effect on RSL3-induced LDH release: primary renal tubular cells
Description: The LDH release of cells or of freshly isolated kidney tubules was measured according to manufacturers’ instructions at indicated time points. In brief, an aliquot of the supernatant was taken and Lysis Solution was added for 45 min to induce maximal LDH release before another aliquot of the supernatant was taken. Subsequently, the supernatants were incubated with CytoTox 96® Reagent for 15 min protected from light at room temperature before adding Stop Solution. Absorbance was measured at 490 nm.
Generation, cell culture, and induction of cell death in primary murine tubular cells. Murine tubular cells were generated by outgrowth from isolated renal tubules (see above). Primary murine tubules were placed in six-well plates containing Dulbecco’s Modified Eagle Medium F-12 Nutrient Mixture without phenol red (DMEM/F12, Thermo Fisher), supplemented with 0.01 mg/ml recombinant human insulin, 5.5 μg/ml human transferrin, 0.005 μg/ml Na2SeO3 (ITS without linoleic acid, Sigma Aldrich), 50 nM hydrocortisone, 100 U/ml penicillin, and 100 μg/ml streptomycin (Pen/Strep, Thermo Fisher). After two days, the outgrown primary murine tubular cells were washed with PBS and a fresh medium was added. When the number of primary murine tubular cells reached approximately 50% confluence, the cells were removed from the six-well plates using Trypsin-EDTA (Thermo Fisher), washed with medium and a Ficoll Paque Plus (Sigma Aldrich) gradient was performed to remove any dead cells, and debris from the murine renal tubules. Cells were washed twice with PBS and seeded in six-well plates with medium. Once the number of grown cells reached approximately 50% confluence, they were washed with PBS and treated with type 2 FIN: RSL3 (also see Supplementary Table 2 for details). After 14 h, medium and cells were collected and prepared for LDH release assay. Images of the treated primary murine tubular cells were obtained using a 20×/0.30 PH1 objective on a Leica DMi1 microscope.

[2] = test system: CD10-135 cells; experiment: FINs/ferroptocide, LDH release assay; format: cell-based, human; parameters: LDH release: unit not given here; details: for LDH release: Nec-1f 30 µM
[3] = test system: HT1080 cells; experiment: Ferroptosis inducers (FINs)/ferroptocide, 7-AAD/annexin V flow cytometry; format: cell-based, human; details: for double-negative events (7-AAD/annexin V): alone (DMSO) or with Fer-1 1 µM; for double-negative events (7-AAD/annexin V) / Inhibition of cell death induction by FINs/ferroptocide: Nec-1s 30 µM, Nec-1f 30 µM; for Inhibition of cell death induction by FINs/ferroptocide: Fer-1 1 µM
[4] = test system: HT1080 cells; experiment: CellTiter-Glo luminescent cell viability assay (ATP), dose-response; format: cell-based, human
Description: Cells were plated in an opaque-walled 96-well plate and treatment with ferroptosis inducers and/or ferroptosis inhibitors was initiated 24 h later. […] Here, the reaction agent was directly added to the wells, mixed on an orbital shaker for 2 min, and then incubated at room temperature for 10 min. The luminescence was detected using a Promega GloMax® instrument.

[5] = test system: NIH3T3 cells; experiment: Simultaneous ferroptosis and necroptosis (RSL3 plus TZ), 7-AAD/annexin V flow cytometry; format: cell-based, murine; details: for Rescue from necrosis induced by RSL3 plus TZ: NIH3T3, 16 h
Description: (§1) To induce necroptosis in a human cell line, HT29 cells were stimulated at the indicated time points with 20 ng/ml human TNFα (Biolegend), 1 μM SMAC-mimetics (Birinapant, Chemietek), and 20 μM zVAD-fmk (Selleckchem, herein referred to as zVAD). For the induction of necroptosis in NIH3T3 cells, cells were incubated with 20 ng/ml TNF-α and 20 μM zVAD for indicated time points. […] Cells were seeded in six-well plates or petri dishes. […] After indicated time points, cells were collected and prepared for flow cytometry, immunoblotting, and/or LDH release assays.
(§2) Cells were harvested and the pellets were washed twice in PBS and stained with 5 μl of 7-AAD (BD Biosciences) and 5 μl of annexin-V-FITC (BD Biosciences) added to 100 μl annexin-V binding buffer (BD Biosciences). After 15 min, cells were recorded on the LSRII with the FACS Diva 6.1.1 software (BD Biosciences) and subsequently analyzed with the FlowJo v10 software (Tree Star).

[6] = test system: NIH3T3 cells; experiment: Ferroptosis inducers (FINs)/ferroptocide, 7-AAD/annexin V flow cytometry; format: cell-based, murine; details: for cells in 7-AAD/annexin V flow cytometry (FigS9b): individual replicates
[7] = test system: MLKL; experiment: Western blot of pMLKL (S358) in TSZ-treated HT29 cells; format: cell-based, human; details: Nec-1s 10 µM, Fer-1 1 µM, Nec-1f 10 µM
Description: as §1
Cells were lysed in ice-cold 10 mM Tris-HCl, pH 7.5, 50 mM NaCl, 1% Triton X-100, 30 mM sodium pyrophosphate, 50 mM NaF, 100 μM Na3VO4, 2 μM ZnCl2, and 1 mM phenylmethylsulfonyl fluoride (PMSF, modified Frackelton buffer) for 30 min on ice. Insoluble material was removed by centrifugation (14 000×g, 30 min, 4 °C). Protein concentration was determined using a commercial Bradford assay kit according to the manufacturer’s instructions (Thermo Fisher). Equal amounts of protein (typically 30 μg per lane) were resolved on a 4%−15% gradient SDS/PAGE gel and transferred to a PVDF membrane (BIO-RAD). Primary antibody incubation was performed for anti-pS166-RIPK1 (Cell Signaling, Cat# 65746, 1:1000 dilution), anti-pS358-MLKL, (Abcam, ab187091, 1:1000 dilution), anti-MLKL (Genetex, GTX107538, 1:1000 dilution) and anti-β-Actin (Cell Signaling, Cat# 3700S, 1:1000 dilution). Secondary antibodies (anti-mouse, HRP-linked antibody, Cell Signaling, Cat# 7076S; anti-rabbit, HRP-linked antibody, Cell Signaling, Cat# 7074S) were applied at concentrations of 1:5.000 (also see Supplementary Table 1 for details). Proteins were then visualized by enhanced chemiluminescence (ECL; Amersham Biosciences).

[8] = test system: NIH3T3 cells; experiment: Ferroptosis inducers (FINs)/ferroptocide, 7-AAD/annexin V flow cytometry; format: cell-based, murine; details: alone (DMSO) or with Fer-1 1 µM, Nec-1s 30 µM, Nec-1f 30 µM
Description: as §1, §2

[9] = test system: Na+ channel (site 2); experiment: Off-target radioligand binding screen; details: Nec-1f 10 µM
[10] = CD10-135, FIN56 alone (FIN) or with Fer-1, Nec-1s
[11] = CD10-135, FINO2 alone (FIN) or with Fer-1, Nec-1s
[12] = CD10-135, RSL3 alone (FIN) or with Fer-1, Nec-1s
[13] = CD10-135, ferroptocide alone (FIN) or with Fer-1, Nec-1s
[14] = HT1080 + Erastin, inhibitor concentration 0.01 (unit not given)
[15] = HT1080 + Erastin, inhibitor concentration 0.1 (unit not given)
[16] = HT1080 + Erastin, inhibitor concentration 1 (unit not given)
[17] = HT1080 + Erastin, inhibitor concentration 10 (unit not given)
[18] = HT1080 + Erastin, inhibitor concentration 30 (unit not given)
[19] = HT1080 + Ferroptocide, inhibitor concentration 0.01 (unit not given)
[20] = HT1080 + RSL3, inhibitor concentration 0.01 (unit not given)
[21] = HT1080 + RSL3, inhibitor concentration 0.1 (unit not given)
[22] = HT1080 + RSL3, inhibitor concentration 1 (unit not given)
[23] = HT1080 + RSL3, inhibitor concentration 10 (unit not given)
[24] = Ferroptocide-induced cell death

SMILES	Effect on RSL3-induced LDH release [1]	LDH release [2, 10]	LDH release [2, 11]	LDH release [2, 12]	LDH release [2, 13]	Effect on FIN-induced LDH release ([2]; CD10-135 cells)	double-negative events (7-AAD/annexin V) ([3]; HT1080, 1.13 µM RSL3 6 h)	double-negative events (7-AAD/annexin V) ([3]; HT1080, 10 µM FIN56 24 h)	double-negative events (7-AAD/annexin V) ([3]; HT1080, 10 µM FINO2 24 h)	Inhibition of cell death induction by FINs/ferroptocide ([3]; HT1080)	ATP luminescence (CellTiterGlo) [4, 14]	ATP luminescence (CellTiterGlo) [4, 15]	ATP luminescence (CellTiterGlo) [4, 16]	ATP luminescence (CellTiterGlo) [4, 17]	ATP luminescence (CellTiterGlo) [4, 18]	ATP luminescence (CellTiterGlo) [4, 19]	ATP luminescence (CellTiterGlo) [4, 20]	ATP luminescence (CellTiterGlo) [4, 21]	ATP luminescence (CellTiterGlo) [4, 22]	ATP luminescence (CellTiterGlo) [4, 23]	further results
CCOC(=O)c1ccc(NC2CCCCC2)c(N)c1 [Fer-1, ferrostatin-1]	prevented; also recorded: complete reversal of LDH release	8.38 and 8.509 and 10.9286	8.33 and 7.093 and 7.5109	6.44 and 3.43	30.26 and 29.1563	reversed	92.2% and 77.7% and 91.5% and 91%	88.3% and 93.1% and 90%	90.8% and 87.7% and 89.4%	inhibition of cell death induction	8.302%	100.351%	97.0601%	92.1314%	88.0064%	2.0385% and 1.258%	46.842% and 51.9737%	61.3859% and 117.078%	60.0511% and 109.723%	58.2722% and 113.348%	Effect on the phenotype induced by ferroptocide ([2]; CD10-135 cells): reversed the phenotype; double-negative events (7-AAD/annexin V) ([3]; HT1080, 5 µM erastin 24 h): 91.8% and 92.7%; double-negative events (7-AAD/annexin V) ([3]; HT1080, 10 µM ferroptocide 24 h): 71.3% and 77%; Rescue from necrosis induced by RSL3 plus TZ [5]: fail to rescue; cells in 7-AAD/annexin V flow cytometry (FigS9b) ([6]; Erastin-induced ferroptosis): 95.0% and 94.0% and 92.0%; cells in 7-AAD/annexin V flow cytometry (FigS9b) ([6]; FIN56-induced ferroptosis): 94.1% and 94.0%; cells in 7-AAD/annexin V flow cytometry (FigS9b) ([6]; FINO2-induced ferroptosis): 90.0% and 90.2%; cells in 7-AAD/annexin V flow cytometry (FigS9b) [6, 24]: 93.0% and 79.0%; double-negative events (7-AAD/annexin V) ([6]; NIH3T3, 10 µM ferroptocide 24 h, alone (DMSO) or with Fer-1 1 µM, Nec-1s 30 µM, Nec-1f 30 µM): 76.5% and 92.2% and 95.9% and 92.6%; cells in 7-AAD/annexin V flow cytometry (FigS9b) ([6]; RSL3-induced ferroptosis): 95.0% and 92.0%; Phosphorylation of MLKL (pS358), western blot [7]: did not prevent MLKL-phosphorylation; double-negative events (7-AAD/annexin V) ([8]; NIH3T3, 1.13 µM RSL3 6 h): 90.9% and 88.3% and 95.7% and 97.7% and 79%; double-negative events (7-AAD/annexin V) ([8]; NIH3T3, 5 µM erastin 24 h): 93.3% and 78.4% and 95.1% and 95.2%; double-negative events (7-AAD/annexin V) ([8]; NIH3T3, 10 µM FIN56 24 h): 94.7% and 91.5% and 96.4%; double-negative events (7-AAD/annexin V) ([8]; NIH3T3, 10 µM FINO2 24 h): 79% and 79.9% and 82.9% and 91%
CN1C(=O)C(Cc2c[nH]c3c(Cl)cccc23)NC1=S (stereo not shown) [Nec-1f]	prevented	25.01 and 21.5704 and 29.6875	27.07 and 34.1078 and 34.3349	36.35 and 26.8291	89.05 and 90.3713	reversed	88% and 71.9% and 83.1% and 89.5%	82.6% and 86.1% and 84.4%	80.8% and 51.5% and 65.9% and 53.8%	inhibition of cell death induction	6.81%	7.52%	8.325%	21.5066%	111.285%	1.591% and 1.035%	48.1449% and 58.3128%	48.8384% and 72.7198%	51.482% and 85.4435%	49.7032% and 98.9558%	LDH release ([1]; primary kidney tubular cells, alone (DMSO) or with Fer-1 or Nec-1f 30 µM): 29.82% and 33.38% and 28.13%; LDH release ([2]; CD10-135, erastin alone (FIN) or with Fer-1, Nec-1s): 25.13 and 17.5 and 32.5; Prevention of FINO2-induced ferroptosis ([3]; HT1080): less effective; ATP luminescence (CellTiterGlo) ([4]; HT1080 + Ferroptocide, inhibitor concentration 0.1 (unit not given)): 1.25% and 2.131%; ATP luminescence (CellTiterGlo) ([4]; HT1080 + Ferroptocide, inhibitor concentration 1 (unit not given)): 5.941% and 7.943%; ATP luminescence (CellTiterGlo) ([4]; HT1080 + Ferroptocide, inhibitor concentration 10 (unit not given)): 11.997% and 7.702%; ATP luminescence (CellTiterGlo) ([4]; HT1080 + RSL3, inhibitor concentration 30 (unit not given)): 46.9784% and 93.7693%; Na+ channel (site 2) ($): inhibition of radioligand binding [9]: -14.5%; Rescue from necrosis induced by RSL3 plus TZ [5]: Nec-1f does; also recorded: maintained cell viability; 7-AAD/annexin V flow cytometry, source data of bar graph Fig3c ([5]; NIH3T3, RSL3 (1.13 µM) + TZ 16 h with inhibitor): 75.7% and 76% and 68%; cells in 7-AAD/annexin V flow cytometry (FigS9b) ([6]; Erastin-induced ferroptosis): 83.1% and 77.0% and 78.0% and 47.0%; cells in 7-AAD/annexin V flow cytometry (FigS9b) ([6]; FIN56-induced ferroptosis): 88.0% and 64.0%; cells in 7-AAD/annexin V flow cytometry (FigS9b) ([6]; FINO2-induced ferroptosis): 75.0% and 57.0%; cells in 7-AAD/annexin V flow cytometry (FigS9b) [6, 24]: 80.0% and 8.0%; cells in 7-AAD/annexin V flow cytometry (FigS9b) ([6]; RSL3-induced ferroptosis): 80.0% and 84.0%; Phosphorylation of MLKL (pS358), western blot [7]: prevented phosphorylation; double-negative events (7-AAD/annexin V) ([8]; NIH3T3, 1.13 µM RSL3 6 h): 88.9% and 61.8% and 72.9% and 86.1% and 70.3% and 57.8% and 80.3%; double-negative events (7-AAD/annexin V) ([8]; NIH3T3, 10 µM FIN56 24 h): 88.1% and 87.8% and 92.6%
